The values below come from patent EP0540143B1, “Compounds and methods for inhibition of HIV and related viruses” (priority 1991, dated 1993).

The test system of test [1] is HIV virus. Nature of the test: Test A (XTT), MT4 cells infected with HIV. It counts as cell-based. The conditions noted are these: for % inhibition: Test A. The method, then:
(§1) Tests A, B, C, and D (XTT)
(§2) MT4 cells in a medium of RPMI 1640, 5% FCS, penicillin/streptomycin are adjusted to 2x10^5 cells/ml and seeded into microplates (96 wells/plate) 100 µl cell suspension/well giving 2x10^4 cells/well. The compound to be tested is made into a 10 mg/ml mixture in DMSO and stored at -20°C. The compound in DMSO is diluted with medium containing 10% DMSO in a 10-fold dilution series to give 1 mg/ml, 10 mg/ml, and […] solutions. Further dilutions to 400, 40, 4 and 0.4 mg/ml are made in medium containing microplates. Fifty µl of the 400, 40, and 4 mg/ml are transferred to the cell-containing microplates with a multi-channel pipette (final concentration: 100, 10, and 1 mg/ml). Finally, 50 µl of virus suspension is added to each well (with a repetitive "Eppendorf" multipipett). Each plate has at least six wells with the following: [Test A: HIV virus; Test B: HIV(II) virus; Test C: SIV virus; Test D: No virus]; with no drug (virus control) and six wells without virus (medium control). The plate is put into a plastic bag and incubated for six days in CO2 atmosphere. To each well in the plate is added 50 µl of XTT ((2,3-bis[2-methoxy-4-nitro-5-sulfophenyl]-5-[(phenylamino)carbonyl]-2H-tetrazolium hydroxide), (1 mg/ml 0.01-0.02 mM N-metyl-phenazonium methosulfate). After six hours of incubation in CO2 atmosphere the plates are covered with adhesive plate sealers and gently mixed on a vortex. Optical densities are determined at a wavelength of 450 nm and a reference wavelength of 650 nm. The percent reduction of cytotoxocity caused by the virus infection is calculated as follows: (OD450 compound - OD450 inf cells)/(OD450 uninf cells - OD450 inf cells)x 100 [formula]

Test [2] has as its system HIV(II) virus. The test is described as follows: Test B (XTT), MT4 cells infected with HIV(II). It is filed as cell-based. The method, then: as §1, §2
On the technique in general: Tetrazolium dyes change colour on reduction, which living cells bring about.

The target in test [3] is recombinant HIV-RT (Human immunodeficiency virus type 1 group M subtype B, UniProt P04585). The test is described as follows: Test I (HIVRT (rAdt)), direct inhibition of recombinant HIV-RT. It counts as biochemical. The method, then:
The compounds were tested for direct inhibitory activity on HIV-RT in a volume of […] recombinant HIV-RT (diluted in virus disruption buffer to give 200.000 cpm).
100 mM Tris-HCl pH 7.6, 100 mM KCl, 4 mM MgCl2, 4 mM DTT, 275 mg/ml BSA, 0.5 mg (rA)n(dT)12-18 and 0.3 mM ^3H- dTTP (specific activity […]). After 60 minutess of incubation 40 ml in duplicate were spotted on paper discs and washed in 5% TCA. After rinsing the paper discs in ethanol they were dried and counted in scintillation fluid.

For test [4], the system named is SIV virus. The test is described as follows: Test C (XTT), MT4 cells infected with SIV. It counts as cell-based. The conditions noted are these: for inhibition at 1 µg/mL / inhibition at 10 µg/mL / inhibition at 100 µg/mL: Simian immunodeficiency virus, MT4, Test C; for % inhibition: Test C. Here is the method: as §1, §2
The subject of test [5] is HIV-2. The test is described as follows: Test F (HIV-2 RT), RT activity in supernatant of infected MT-4/H9 cells. It is filed as cell-based. The conditions noted are these: for inhibition at 0.1 µg/mL / inhibition at 1 µg/mL / inhibition at 10 µg/mL / inhibition at 100 µg/mL: Human immunodeficiency virus 2, H9, Test F; for % inhibition: Test F. The method, then: (§3) Tests E, F, G, H (HIV-IRT, HIV-2RT, SIVRT, no virus)
(§4) MT-4/H9-cells are adjusted to 2x10^5 cells/ml medium (RPMI 1640, 5% FCS, penicillin/streptomycin) and seeded into microplates (96 wells/plate) […] cell suspension/well giving 2 x 10^4 cells/well. The compound to be tested is made 10 mg/ml in DMSO = stock solution (stored at -20°C). The compound dissolved in DMSO is diluted 25 times in medium to give 400 mg/ml. Further dilutions to 40 mg/ml and 4 mg/ml are made in microplates.
(§5) 50 µl of the dilutions 400 mg/ml, 40 mg/ml and 4mg/ml are transferred to the "cell-containing" microplate with a multichannel pipette. […]
(§6) Finally 50 µl of virus suspension is added to each well (with a repetitive "Eppendorf multipett"). [Test E-HIV-1; Test F-HIV-2; Test G-SIV; Test H-no virus].
(§7) Each plate has at least four wells with virus but no drug (virus control) and two wells without virus (medium control). The plate is put into a plastic bag to avoid evaporation and incubated for six days in CO2-atmosphere. 10 µl supernatant from each well is transferred with a multichannel pipette into a new microplate to which 40 ml VDB, (50 mM Tris-HCl pH = 7.6, 35 mM KCl, 4 mM DTT, 1 mM EDTA, 1.3% Triton X-100), have been added to each well. The addition of 50 ml RT-reaction mix, (10 ml culture supernatant, 40 ml VDB and 50 ml reaction mixture giving a final concentration of: 100 mM Tris-HCl pH = 7.6, 100 mM KCl, 4 mM MgCl2, 4 mM DTT, 275 mg/ml BSA/ml, 5 mg (rA)n(dT)12-18/ml and 0.3 mM ^3H dTTP (specific activity 18.000 cpm/pmol)) gives a final volume of […]/well. After 60 minutes of incubation the whole assay volume is transferred by use of a cell harvester to a filter mat prewetted with 5% TCA. The filter is washed in 5% TCA and rinsed once in ethanol. After drying the filter mat at 60°C for 30 min. each filter (96/mat) is punched out and put into counting vials 2 ml of scintillation fluid is added and the samples are counted (1 min) or the whole filter mat is put into a plastic bag, 10 ml of scintillation fluid is added and the filter mat is counted in a Beckman Betaplate counter. Percent reduction of RT activity is determined by comparing RT activity for virus control with the RT activity measured for each dilution of the compound.

The test system of test [6] is HIV-1. Nature of the test: Test E (HIV-1 RT), RT activity in supernatant of infected MT-4/H9 cells. It counts as cell-based. Here is the method: as §3, §4, §5, §6, §7
The test system of test [7] is MT4 cells. Nature of the test: Test D (XTT), MT4 cells, no virus. It is filed as cell-based. The conditions noted are these: Homo sapiens. The method, then: as §1, §2
Where [8] appears, read: Human immunodeficiency virus 1, MT4, Test A, 1 µg/ml.
[9] abbreviates: Human immunodeficiency virus 1, MT4, Test A, 10 µg/ml.
[10] abbreviates: Human immunodeficiency virus 1, MT4, Test A, 100 µg/ml.
The mark [11] stands for this setting: Human immunodeficiency virus 1, MT4, Test B, 1 µg/ml.
Where [12] appears, read: Human immunodeficiency virus 1, MT4, Test B.
[13] abbreviates: Human immunodeficiency virus 1, H9, Test E.

A word on the inhibition: it is the percentage by which the read-out fell short of the control. Broadly, the % inhibition is how much of the control response was suppressed. Lower therefore signals little suppression.

Where “and” joins values, the source holds several entries; their conditions need not be identical. Equal entries are not always repeated.

Regarding `S=C(NCCc1ccccc1)Nc1nncs1`, the inhibition at 1 µg/mL in test [1] (setting [8]) was determined as 100%; in test [2] (setting [11]) it was 100%; in test [3], 14%; in test [4] (1 µg/ml) it was 0%. In addition, the inhibition at 10 µg/mL in test [1] (setting [9]) came out at 100%; in test [2] (setting [12]) it was 57%; in test [3], 14%; in test [4] it was 17%. The inhibition at 100 µg/mL in test [1] (setting [10]) was 100%; in test [2] (setting [12]) it was 96%; in test [4] it was 0%. Moreover, the inhibition at 0.1 µg/mL in test [3] is 12%.

Consider `S=C(NCCc1ccccc1)Nc1nc2ccccc2s1`, for which the inhibition at 0.1 µg/mL in test [1] (Human immunodeficiency virus 1, MT4, Test A, 0.1 µg/ml) is 0%; in test [5], 1%; in test [2] (Human immunodeficiency virus 1, MT4, Test B, 0.1 µg/ml), 17%; in test [3], 39%; in test [6] (Human immunodeficiency virus 1, H9, Test E, 0.1 µg/ml), 1%. Further, the inhibition at 1 µg/mL worked out at 63% in test [1] (setting [8]); 87% in test [5] (1 µg/ml); 99% in test [2] (setting [11]); 36% in test [3]; 77% in test [6] (setting [13]); 32% in test [7]. Further, in test [4] (1 µg/ml), the inhibition at 1 µg/mL was determined as 0%. Besides, the inhibition at 10 µg/mL was 100% in test [1] (setting [9]); 84% in test [5] (10 µg/ml); 100% in test [2] (setting [12]); 40% in test [3]; 96% in test [6] (setting [13]); 27% in test [7]. For the same compound, the inhibition at 10 µg/mL in test [4] stood at 1%. Also, the “% inhibition” value came to 53% in test [1] (1 µg/ml) and 99% in test [1] (10 µg/ml). Further, the inhibition at 100 µg/mL in test [5] (100 µg/ml) stood at 96%; in test [2] (setting [12]), 50%; in test [6] (setting [13]), 95%; in test [7] it was 23%; in test [4], 8%.

Take `S=C(NCCc1ccccc1)Nc1nccs1` [the 1st table, row 1]: the inhibition at 100 µg/mL was determined as 48% in test [1] (setting [10]), 95% in test [5] (100 µg/ml), 99% in test [6] (setting [13]) and 45% in test [7]. Moreover, the “% inhibition” value was 4% in test [1] (0.1 µg/ml); 99% and 100% and 70% and 98% in test [1] (10 µg/ml); 58% and 64% in test [1] (100 µg/ml); 79% in test [5] (1 µg/ml); 76% in test [5] (10 µg/ml); 86% in test [5] (100 µg/ml). Besides, the “% inhibition” value in test [2] (Test B, 1 µg/ml) is 0%; in test [6] (Test E, 0.1 µg/ml) it was 10% and 1%; in test [4] (0.1 µg/ml) it was 0% and 1%; in test [4] (1 µg/ml), 0% and 8% and 2%. For the same compound, the results for the inhibition at 0.1 µg/mL in test [5] and in test [7] were 43% and 31%, respectively. For the same compound, the inhibition at 1 µg/mL in test [5] (1 µg/ml) was 75%; in test [6] (setting [13]), 99%; in test [7], 18%. Besides, the results for the inhibition at 10 µg/mL in test [5] (10 µg/ml), in test [6] (setting [13]) and in test [7] were 57%, 99% and 33%, respectively.

With `Cc1ccnc(NC(=S)NCCc2ccccc2)n1`, the inhibition at 1 µg/mL in test [1] (setting [8]) came to 42%; in test [2] (setting [11]), 0%; in test [3], 15%; in test [4] (1 µg/ml), 0%. The inhibition at 10 µg/mL in test [1] (setting [9]) came out at 64%; in test [2] (setting [12]), 27%; in test [3], 9%; in test [4] it was 0%. Further, the inhibition at 100 µg/mL came out at 100% in test [1] (setting [10]), 100% in test [2] (setting [12]) and 0% in test [4]. Also, in test [3], the inhibition at 0.1 µg/mL turned out to be 9%.

On to `CCOc1ccccc1CCNC(=S)Nc1nccs1`, for which the inhibition at 1 µg/mL in test [1] (setting [8]) was 96%; in test [2] (setting [11]), 100%; in test [3], 30%; in test [4] (1 µg/ml) it was 0%. The inhibition at 10 µg/mL in test [1] (setting [9]) is 100%; in test [2] (setting [12]), 91%; in test [3], 33%; in test [4], 5%. Besides, the inhibition at 100 µg/mL is 100% in test [1] (setting [10]), 100% in test [2] (setting [12]) and 0% in test [4]. Further, the inhibition at 0.1 µg/mL in test [3] was 12%.

Take `S=C(NCCc1ccccc1)Nc1nnc[nH]1`: the inhibition at 1 µg/mL in test [1] (setting [8]) was determined as 11%; in test [3] it was 14%; in test [7], 33%; in test [4] (1 µg/ml) it was 5%. The inhibition at 10 µg/mL in test [1] (setting [9]) was determined as 27%; in test [3], 14%; in test [7], 33%; in test [4], 8%. Further, the inhibition at 100 µg/mL in test [1] (setting [10]) turned out to be 45%; in test [7], 0%; in test [4], 15%. For the same compound, the inhibition at 0.1 µg/mL in test [3] amounted to 12%; in test [7], 15%.
